Square brackets hold non-standard residues; d marks the D form. Peptide text beside a SMILES is read from it. * marks the point of attachment. Dolaproine = CO[C@@H]([C@@H]1CCCN1)[C@@H](C)C(=O)O; Dil = CC[C@H](C)[C@H](NC)[C@@H](CC(=O)O)OC; X1 = O=C(CCCCCN1C(=O)C=CC1=O)NCCOCCOCCN*; NMe2Val = CC(C)[C@@H](C(=O)*)N(C)C
Experiments:
all tested cell lines = experiment: In vitro cell viability assay, drug-linkers versus ADCs; assay type: cell-based; conditions: AF-Lx quenched with thiourea, AF-Mal with n-acetyl-cysteine
Experimental: (§1) Before starting the assay, the AF-Lx and AF-Mal were quenched by incubation the compounds with 1 mol equiv. thiourea (2 hours, 37° C.) and n-acetyl-cysteine (30 minutes, 0° C.), respectively. The cells were trypsinized and plated in 96-well, flat-bottomed, tissue culture plates at day 0. On day 1, from the above mentioned compounds serial dilution series (9×4-fold dilutions) were made starting from 10 or 1000 nM (depending on type of cells and compounds) and added to the cells (in case of ADCs, concentration of the mAb was used). On day 5, the […] BLUE® reagent was added and incubated for 2 hours at 37° C., and viable cells were measured with a TeCan plate reader (Tecan Group Ltd.) at 560EX/590EM nm. Fluorescence values of the samples were corrected for background of cell culture medium, the results, presented as the percentage of survival, were calculated by dividing the fluorescence values of the treated cells by the values of the untreated control cells. The data were analyzed with Graphpad Prism 5 software.

NCI-N87 tumors = experiment: In vivo therapy study, NCI-N87 xenografts; design: species or system nude mice; conditions: single bolus injection 15 mg/kg
Experimental: (§2) Body weight was measured three times per week and MTD was reached when weight loss was >10% compared with the control mice. […] For this purpose, seven groups of 8 or 9 mice with established NCI-N87 or JIMT-1 xenografts in both flanks were used. […] All mice received an i.p. bolus injection. In the study with the NCI-N87 tumors, Group 1 was the control group and received 100 μL of saline solution. […] In the study with the JIMT-1 tumors, Group 1 was the control group and received 100 μL of saline solution. […] Body weight and tumor volume were measured three times per week up to 4 months after end of treatment.

JIMT-1 tumors = experiment: In vivo therapy study, JIMT-1 xenografts; design: species or system nude mice; conditions: single bolus injection (15 mg/kg; AF conjugates 15 and 30 mg/kg), follow-up to day 125
Experimental: as §2

SKOV-3 = experiment: In vitro cell viability assay ([…] BLUE); assay type: cell-based
Experimental: as §1, with “BLUE® Assay (Promega). Before” for “Before”, “Fluorescence values of the samples were corrected for background of cell culture medium, the results, presented as the percentage of survival, were calculated by dividing the fluorescence values of the treated cells by the values of the untreated control cells.” left out

NCI-N87 = experiment: In vitro cell viability assay ([…] BLUE); assay type: cell-based; conditions: concentration of the mAb for ADCs, day 5 readout
Experimental: as §1, with “BLUE® Assay (Promega). Before” for “Before”, “Fluorescence values of the samples were corrected for background of cell culture medium, the results, presented as the percentage of survival, were calculated by dividing the fluorescence values of the treated cells by the values of the untreated control cells.” left out

JIMT-1 = experiment: In vitro cell viability assay ([…] BLUE); assay type: cell-based
Experimental: as §1, with “BLUE® Assay (Promega). Before” for “Before”, “Fluorescence values of the samples were corrected for background of cell culture medium, the results, presented as the percentage of survival, were calculated by dividing the fluorescence values of the treated cells by the values of the untreated control cells.” left out

SK-BR-3 = experiment: In vitro cell viability assay ([…] BLUE); assay type: cell-based
Experimental: as §1, with “BLUE® Assay (Promega). Before” for “Before”, “Fluorescence values of the samples were corrected for background of cell culture medium, the results, presented as the percentage of survival, were calculated by dividing the fluorescence values of the treated cells by the values of the untreated control cells.” left out

MDA-MB-231 = experiment: In vitro cell viability assay ([…] BLUE); assay type: cell-based
Experimental: as §1, with “BLUE® Assay (Promega). Before” for “Before”, “Fluorescence values of the samples were corrected for background of cell culture medium, the results, presented as the percentage of survival, were calculated by dividing the fluorescence values of the treated cells by the values of the untreated control cells.” left out

| Compound | potency of drug-linker lower compared to its corresponding ADC (all tested cell lines) | time at which tumors started regrowth (NCI-N87 tumors) [days] | tumor growth response, in words (JIMT-1 tumors) | IC50 (SKOV-3) [pM] | IC50 (NCI-N87) [pM] | IC50 (JIMT-1; JIMT-1, T-DM1-resistant) [pM] | potency / IC50 in JIMT-1 cell line, in words (JIMT-1; T-DM1-resistant JIMT-1) | IC50 (SK-BR-3) [pM] | potency / IC50 in MDA-MB-231, in words (MDA-MB-231; HER2-negative MDA-MB-231) | IC50 (MDA-MB-231; MDA-MB-231, HER2-negative) [pM] |
| --- | --- | --- | --- | --- | --- | --- | --- | --- | --- | --- |
| CC[C@H](C)[C@@H]([C@@H](CC(=O)N1CCC[C@H]1[C@H](OC)[C@@H](C)C(=O)N[C@H](Cc1ccccc1)C(=O)NCCOCCOCCNC(=O)CCCCCN1C(=O)C=CC1=O)OC)N(C)C(=O)[C@@H](NC(=O)[C@H](C(C)C)N(C)C)C(C)C [AF-Mal, AF-PEG1-amide-Hex-Mal] (NMe2Val-V[Dil][Dolaproine][dF]-X1) | 10 fold | – | – | – | – | – | – | – | – | – |
| [Pt(en)(AF-(4-(12-amino-3-oxo-7,10-dioxa-2,4-diazadodecyl)piperidine))Cl](Cl) [AF-Lx] | 10^3-10^4 fold | – | – | – | – | – | – | – | – | – |
| ado-trastuzumab emtansine [T-DM1] | – | 20 | minimal growth delay | 13 | 105 | 7000 | an order of magnitude higher | 21 | lower IC50 | 200000 |

— US20190298846A1, “CELL TARGETING CONJUGATES” (LinXis B.V., priority 2016, published 2019)
